According to patent publication US7390836B2, “Small molecules used to increase cell death” (priority 1999, dated 2008):
Where two headings read alike, the source gives them in different places. Peptide text beside a SMILES is read from it. * marks the point of attachment. Cbz = O=C(OCc1ccccc1)*; CH2F = FC*

How the values were obtained:
[1] = system: Bak BH3 peptide / Bcl-xL (Bcl-xL/GST, Bcl-xL-His6) interaction; test: Fluorescence polarization assay, labeled Bak BH3 peptide binding to Bcl-xL fusion protein; conditions: for order of affinities of BH3Is: overall rank order from FP, NMR, pulldown and SELDI results; for order of decreasing affinity, fluorescence polarization assays: rank order
Excerpt: We have used a fluorescence polarization assay to screen a library of 16,000 chemical compounds (ChemBridge, San Diego, Calif.) to identify small molecules that inhibit the interaction between a peptide corresponding to the BH3 domain of a pro-apoptotic protein and a recombinant Bcl-xL/GST fusion protein. In this assay, an […] peptide corresponding to the BH3 domain of Bak was used. The Bak peptide was labeled with a fluorescent tag, such as OREGON GREEN. Upon binding of the tagged peptide to the Bcl-xL/GST fusion protein, the polarization of light emitted by the tagged peptide is altered. […] Conversely, in a sample in which a compound does inhibit the interaction between the Bak peptide and the Bcl-xL/GST fusion protein the polarization of light emitted by the peptide will not be altered.
A nineteen amino acid Bak peptide, corresponding to the BH3 domain of Bak, with the sequence […] (SEQ ID NO: 2) was labeled with the fluorophore OREGON GREEN according to the manufacturer's instructions (Molecular Probes, Eugene, Oreg.). In addition, a recombinant Bcl-xL/GST fusion protein was generated using conventional techniques known to those skilled in the fields of biochemistry and molecular biology. The interaction between the Bak peptide and the Bcl-xL/GST fusion protein was confirmed.
A screen of approximately 16,000 compounds from the ChemBridge chemical compound library was conducted to identify compounds that disrupt the interaction between the Bak peptide and the Bcl-xL/GST fusion protein. The ability of a compound to disrupt the interaction between the two polypeptides was assessed using a fluorescence polarization assay. The Bak peptide and Bcl-xL/GST fusion protein (15 nM each; dissolved in PBS) were first combined, and then the compound was added. Alternatively, the Bak peptide, Bcl-xL/GST fusion protein, and test compound (5 mg/ml; dissolved in 0.1-0.5 gl of DMSO) may be combined in any order. Normally the unbound Bak polypeptide results in polarization of approximately 40 mP units. Upon binding of the Bcl-xL/GST fusion protein, polarization increased to approximately 100-120 mP units.
In a preferred method, the fluorescence assay was carried out as follows. Bak BH3 peptide (Research Genetics) was labeled using NHS-OREGON GREEN (Molecular Probes) and purified by HPLC. For the initial screening assays, 33 nM of labeled BH3 peptide, 2 μM of GST-Bcl-xL protein, 0.1% bovine gamma globulin (BGG, Sigma) and 1 mM DTT mixed with PBS, pH 7.2 (Gibco) were added into 384 well black plates (Lab Systems) using MULTIDROP (Lab Systems). Small molecules (5 mg/ml in DMSO, ChemBridge) were transferred using plastic 384-pin arrays (Genetix). The plates were incubated for 1-2 hr at 25° C., and the fluorescence polarization assay values were determined using an Analyst plate reader (LJL Biosystems). Reactions containing 16.65 nM of labeled BH3 peptide and 4.2 μM of Bcl-xL-His6 fusion protein, which was previously utilized to characterize BH3/Bcl-xL binding (Sattler et al., Science 275:983-6, 1997) were used for the further fluorescence polarization analyses. Kd and Ki determination was performed as previously described using […] PRISM software package (GraphPad) (Dandliker et al., Methods Enzymol. 74:3-28,1981).
In a further screen, various concentrations of each of the above-identified compounds were evaluated for their potency. A serial dilution of each chemical compound was performed and the fluorescence polarization assay was repeated, as per the primary screen. As a result of the secondary screening, three compounds, chemical compound ID numbers 275805 (BH3I-1; FIG. 1), 282986 (BH3I-1′; FIG. 2), and 175362 (BH3I-2; FIG. 3), collectively termed “BH3Is,” were identified to disrupt the interaction between Bak and the BCL-xL/GST fusion protein. […] Additional homologues of the BH3I-1s (BH3I-1″ and BH3I-1′″) and BH3I-2 (BH3-2″ and BH3I-2″) were also analyzed in the study (FIG. 4). […]

[2] = system: HeLa cells that stably overexpress human BCL-XL; test: Cell death by ATP levels in Bcl-xL overexpressing cells after zVAD-fmk pretreatment; assay type: cell-based; conditions: zVAD-fmk 100 μM pretreatment, 48 or 72 hours
Procedure: In another study, HeLa cells that stably overexpress human BCL-XL, and are therefore more resistant to cell death, were pretreated with zVAD-fmk (100 μM) for 1 hour, as described above. Each of the chemical compounds BH3I-1, BH3I-1′, and BH3I-2 from the ChemBridge library was then added to the media of the cells of three separate samples. After 48 or 72 hours of exposure of the cells to zVAD-fmk and the chemical compound, the level of cell death was measured for each sample, by measuring cellular ATP levels.

[3] = system: HeLa cells; test: Cell death by ATP levels after zVAD-fmk pretreatment; assay type: cell-based; conditions: zVAD-fmk 100 μM pretreatment, 48 or 72 hours
Procedure: The conditions under which cell death occurs in the presence of BH3Is were further evaluated. HeLa cells were pretreated with zVAD-fmk (100 μM) for 1 hour. The purpose of such a treatment was to inhibit the intracellular pathways mediating cell death by apoptosis. Each of the chemical compounds BH3I-1, BH3I-1′, or BH3I-2 was then added to the media of the cells of three separate samples. After 48 or 72 hours of exposure of the cells to zVAD-fmk and the chemical compound, the level of cell death was measured for each sample, by measuring cellular ATP levels.

[4] = system: Jurkat cells; test: Cytotoxicity by MTS assay and propidium iodide uptake; assay type: cell-based
Procedure: Since BH3Is induce apoptosis, their mode of action, for example, through disruption of BH3 domain interactions, was investigated next. If apoptosis induced by a BH3I is BH3-dependent, then cytotoxicity should correlate with the compound's ability to disrupt BH3 domain interactions in vitro. To examine this possibility, Jurkat cells were treated with the BH3 Is and the occurrence of cell death was assayed by the MTS assay and propidium iodide (PI) uptake (FIG. 7A). The cytotoxicity of BH3-Is followed the order of BH3I-2′>BH3I-2>BH3I-2″>BH3I-1>BH3I-1′>BH3I-1″>BH3I-1′″ which paralleled the order of their Ki values determined using in vitro Bcl-xL binding assays (FIGS. 7B and 7C). Similar data were obtained using a trypan blue exclusion assay.

[5] = target: T1, Bcl-xL (Homo sapiens, UniProt Q07817, DEL45-84); test: NMR titration of Bcl-xL; assay type: binding; conditions: rank order
T1 construct: His6 (C); made in house
T1 sequence (Q07817 with tags, fused parts or gaps DEL45-84 limits assumed): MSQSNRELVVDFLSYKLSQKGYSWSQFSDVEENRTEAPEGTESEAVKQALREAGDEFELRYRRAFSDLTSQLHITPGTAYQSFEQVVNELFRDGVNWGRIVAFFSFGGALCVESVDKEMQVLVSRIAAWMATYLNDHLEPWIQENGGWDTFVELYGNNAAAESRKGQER
Procedure: To verify this conclusion, NMR titrations of Bcl-xL with BH3I-1s were performed and their Ki values were determined (FIG. 4). […] The BH3I-1s Ki values obtained by the NMR approach agree with the results of both pulldown and SELDI analyses. Therefore, the order of affinities of BH3Is is: BH312′>BH3I-2>BH3I-2″>BH3I-1>BH3I-1′>BH3I-1″>BH3I-1′″.
NMR titration was used to examine whether BH3Iinteracts with the binding pocket of Bcl-xL in a manner similar to Bak BH3 peptide (Hajduk et al., Science 278:497-499, 1997).
Next, changes in Bcl-xL structure upon addition of increasing amounts of BH3Is were determined. Each of the BH3Is induced significant changes in the Bcl-xL structure. The compounds targeted the hydrophobic cleft formed by the BH1, BH2, and BH3 domains on the surface of the Bcl-xL protein, and primarily bound to the area formed by BH1 and BH2 domains.

[6] = system: HeLa cells, Jurkat cells; test: Caspase dependence of BH3I-induced cell death (zVAD-fmk); assay type: cell-based; conditions: Hoechst dye
Procedure: FIG. 10A is a graph showing the comparison of BH3Is and Bax induced cell death. HeLa cells were transfected with YFP-Bax and pEYFP-C 1 for 48 hr in the absence (open bars) or presence (closed bars) of 100 μM zVAD-fmk. YFP transfected cells were also treated with BH3I-1 (100 μM) or BH3I-2 (50 μM) for 48 hours. Cell viability was determined by propidium iodide (PI) staining and microscopic examination of PI/YFP positive cells. Numbers represent the percentage of PI positive cells in the YFP positive population. The values of standard deviation are also shown.
FIG. 10B is a graph showing the attenuation of BH3Is' cytotoxicities by the pan-caspase inhibitor zVAD-fmk. Jurkat cells were treated with BH3I-1 or BH3I-2 in the presence (open bars) or absence (closed bars) of 100 μM zVAD-fmk (Alexis) for 48 hr. Cell death was determined using an MTS assay. Numbers represent the percentages of cell death, normalized relative to a DMSO treated control, which was set at 100% viability. Standard deviation values are also shown.
FIG. 10C is a set of images of cells showing that nuclear fragmentation, but not cytochrome c release, induced by BH3Is, requires caspases. […]
FIG. 10D-1-10D-6 are a series of graphs showing DNA fragmentation analysis of Jurkat cells treated with BH3Is and zVAD-fmk. […] Samples were analyzed by FACS, and the percentage of subG1 DNA is shown for each sample. […]

[7] = MTS assay and PI uptake, rank order

Compound | order of affinities of BH3Is [1] | order of decreasing affinity, fluorescence polarization assays [1] | cellular ATP levels [2] | cellular ATP levels [3] | order of cytotoxicity [4, 7] | relative order of affinities, NMR titrations [5] | order of cytotoxicity [4] | protection from BH3I-induced nuclear fragmentation [6]
CC(C)C(C(=O)O)N1C(=O)/C(=C/c2ccc(Cl)cc2)SC1=S (stereo not shown) [BH3I-1′] | BH312′>BH3I-2>BH3I-2″>BH3I-1>BH3I-1′>BH3I-1″>BH3I-1′″ | BH3I-1>BH3I-1′>BH3I-2′>BH3I-2>BH3I-2″>BH3I-1″ | cellular ATP levels decreased | cellular ATP levels decreased | BH3I-2′>BH3I-2>BH3I-2″>BH3I-1>BH3I-1′>BH3I-1″>BH3I-1′″ | BH3I-1>BH3I-1′>BH3I-1″>BH3I-1′″ | – | –
CC(C)C(C(=O)O)N1C(=O)/C(=C/c2ccc(N(C)C)cc2)SC1=S (stereo not shown) [BH3I-1′″] | BH312′>BH3I-2>BH3I-2″>BH3I-1>BH3I-1′>BH3I-1″>BH3I-1′″ | – | – | – | – | BH3I-1>BH3I-1′>BH3I-1″>BH3I-1′″ | BH3I-2′>BH3I-2>BH3I-2″>BH3I-1>BH3I-1′>BH3I-1″>BH3I-1′″ | –
O=C(Nc1cc(S(=O)(=O)c2ccc(Cl)cc2)ccc1Cl)c1cc(Cl)cc(I)c1O [BH3I-2′] | BH312′>BH3I-2>BH3I-2″>BH3I-1>BH3I-1′>BH3I-1″>BH3I-1′″ | BH3I-1>BH3I-1′>BH3I-2′>BH3I-2>BH3I-2″>BH3I-1″ | – | – | BH3I-2′>BH3I-2>BH3I-2″>BH3I-1>BH3I-1′>BH3I-1″>BH3I-1′″ | – | – | –
O=C(Nc1cc(S(=O)(=O)c2ccc(Cl)cc2)ccc1Cl)c1cc(I)cc(I)c1O [BH3I-2″] | BH312′>BH3I-2>BH3I-2″>BH3I-1>BH3I-1′>BH3I-1″>BH3I-1′″ | BH3I-1>BH3I-1′>BH3I-2′>BH3I-2>BH3I-2″>BH3I-1″ | – | – | BH3I-2′>BH3I-2>BH3I-2″>BH3I-1>BH3I-1′>BH3I-1″>BH3I-1′″ | – | – | –
COC(=O)C[C@H](NC(=O)[C@H](C)NC(=O)[C@@H](NC(=O)OCc1ccccc1)C(C)C)C(=O)CF [zVAD-fmk] (Cbz-Val-Ala-Asp(OMe)-CH2F) | – | – | – | – | – | – | – | completely protected cells from BH3I-induced nuclear fragmentation
